Holding throughout (assay type): biochemical
Assay [1] deals with CDK1/Cyclin B1 (Homo sapiens, UniProt P06493). Put plainly: CDK1/Cyclin B1 kinase assay (Nanosyn, Caliper microfluidic). The conditions noted are these: 12-point dose-response, ATP at Km (40 μM), 3 hr. A digest of the protocol: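 Mobility-shift microfluidic kinase assay, 12-point dose-response in singlicate. Conditions: 0.08 nM enzyme, 40 μM ATP (Km), 1 μM peptide substrate, 3 hr incubation; staurosporine as reference.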

Assay [2] deals with CDK2/Cyclin A (Homo sapiens, UniProt P24941). Briefly: CDK2/Cyclin A kinase assay (Nanosyn, Caliper microfluidic). The settings on record: 12-point dose-response, ATP at Km (50 μM), 3 hr. A digest of the protocol:
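Caliper microfluidic mobility-shift read-out; 0.1 nM enzyme, 50 μM ATP (Km), 1 μM peptide substrate, 3 hr incubation. 12-point dose-response in singlicate; staurosporine as reference.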

For assay [3], the target named is CDK2/Cyclin E (Homo sapiens, UniProt P24941). Put plainly: CDK2/Cyclin E kinase assay (Nanosyn, Caliper microfluidic). The conditions noted are these: 12-point dose-response, ATP at Km (100 μM), 3 hr. In a few lines:
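Caliper microfluidic mobility-shift readout of phosphorylation of 1 μM substrate peptide by 0.15 nM enzyme at 100 μM ATP (stated as Km), 3 hr incubation. 12-point dose-response in singlicate, staurosporine as reference.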

For assay [4], the target named is CDK3/Cyclin E (Homo sapiens, UniProt Q00526). Briefly: CDK3/Cyclin E kinase assay (Nanosyn, Caliper microfluidic). The settings on record: 12-point dose-response, ATP at Km (400 μM), 3 hr. A digest of the protocol: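 Caliper microfluidic mobility-shift read-out with 1 nM enzyme, 400 μM ATP (stated as Km) and 1 μM peptide substrate, 3 hr incubation. Compounds run as 12-point dose-response in singlicate.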

In assay [5] the target is CDK4/Cyclin D1 (Homo sapiens, UniProt P11802). Put plainly: CDK4/Cyclin D1 kinase assay (Nanosyn, Caliper microfluidic). The conditions noted are these: 12-point dose-response, ATP at Km (200 μM), 3 hr; Table 4. In a few lines:
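Caliper microfluidic mobility-shift read-out, 12-point dose-response in singlicate. 1 nM enzyme, 200 μM ATP (Km), 1 μM peptide substrate, 3 hr incubation; staurosporine as reference.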

The target in assay [6] is CDK5/p35 (Homo sapiens, UniProt Q00535). Briefly: CDK5/p35 kinase assay (Nanosyn, Caliper microfluidic). The settings on record: 12-point dose-response, ATP at Km (20 μM), 3 hr. A digest of the protocol:
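Microfluidic mobility-shift kinase assay with 0.05 nM CDK5/p35, 20 μM ATP (Km) and 1 μM peptide substrate, 3 hr incubation. Compounds tested as 12-point dose–response in singlicate; staurosporine as reference.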

For assay [7], the target named is CDK5/p25 (Homo sapiens, UniProt Q00535). Put plainly: CDK5/p25 kinase assay (Nanosyn, Caliper microfluidic). The settings on record: 12-point dose-response, ATP at Km (20 μM), 3 hr. A digest of the protocol:
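Caliper microfluidic mobility-shift assay, 12-point dose-response in singlicate. CDK5/p25 at 0.1 nM with 20 μM ATP (Km) and 1 μM peptide substrate. Incubation 3 hr.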

Assay [8] deals with CDK6/Cyclin D3 (Homo sapiens, UniProt Q00534). Briefly: CDK6/Cyclin D3 kinase assay (Nanosyn, Caliper microfluidic). The conditions noted are these: 12-point dose-response, ATP at Km (300 μM), 3 hr. In a few lines:
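Caliper microfluidic assay with 2 nM enzyme, 300 μM ATP and 1 μM phosphoacceptor peptide, incubated for 3 hr. Compounds were run as 12-point dose-response curves in singlicate.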

The target of assay [9] is CDK7/Cyclin H (Homo sapiens, UniProt P50613). Put plainly: CDK7/Cyclin H kinase assay (Nanosyn, Caliper microfluidic). The settings on record: 12-point dose-response, ATP at Km (50 μM), 17 hr. A digest of the protocol: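 Caliper microfluidic mobility-shift assay with 10 nM CDK7/Cyclin H, 50 μM ATP (Km) and 1 μM peptide substrate, incubated 17 hr. Compounds run in 12-point dose-response, singlicate.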

In assay [10] the target is CDK9/Cyclin T (Homo sapiens, UniProt P50750). Put plainly: CDK9/Cyclin T kinase assay (Nanosyn, Caliper microfluidic). The conditions noted are these: 12-point dose-response, ATP at Km (10 μM), 17 hr; Table 5. A digest of the protocol: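 Caliper microfluidic mobility-shift read-out, 12-point dose-response in singlicate at ATP Km with 1 μM peptide substrate; staurosporine reference.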

Molecules are shown by their SMILES.

Chain of CDK6/Cyclin D3 (Q00534 whole entry): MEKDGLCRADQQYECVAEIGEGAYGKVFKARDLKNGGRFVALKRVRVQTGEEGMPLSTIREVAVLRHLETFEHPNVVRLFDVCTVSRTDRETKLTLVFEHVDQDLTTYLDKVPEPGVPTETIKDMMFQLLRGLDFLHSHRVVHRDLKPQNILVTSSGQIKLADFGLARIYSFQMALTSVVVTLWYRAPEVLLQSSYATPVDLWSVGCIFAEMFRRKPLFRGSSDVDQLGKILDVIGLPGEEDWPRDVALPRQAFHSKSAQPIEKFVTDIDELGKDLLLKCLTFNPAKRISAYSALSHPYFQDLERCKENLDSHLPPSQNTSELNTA
Chain of CDK6/Cyclin D3 (P30281 whole entry partner): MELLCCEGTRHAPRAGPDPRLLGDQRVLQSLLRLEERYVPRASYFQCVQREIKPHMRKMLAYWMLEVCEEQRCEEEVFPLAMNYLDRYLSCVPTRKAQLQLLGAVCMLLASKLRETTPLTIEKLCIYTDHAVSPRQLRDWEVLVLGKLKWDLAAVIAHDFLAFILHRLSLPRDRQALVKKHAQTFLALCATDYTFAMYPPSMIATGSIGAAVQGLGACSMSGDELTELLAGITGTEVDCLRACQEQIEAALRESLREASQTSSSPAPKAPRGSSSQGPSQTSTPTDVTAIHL
Chain of CDK5/p25 (Q00535 whole entry): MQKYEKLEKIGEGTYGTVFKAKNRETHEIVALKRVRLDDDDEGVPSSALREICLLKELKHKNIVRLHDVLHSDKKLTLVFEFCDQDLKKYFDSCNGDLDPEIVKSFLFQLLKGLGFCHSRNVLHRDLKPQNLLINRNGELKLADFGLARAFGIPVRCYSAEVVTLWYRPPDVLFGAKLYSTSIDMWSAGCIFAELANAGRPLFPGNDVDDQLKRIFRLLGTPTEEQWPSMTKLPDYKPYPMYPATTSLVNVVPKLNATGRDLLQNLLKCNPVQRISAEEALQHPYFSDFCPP
Chain of CDK5/p25 (Q15078 99-307 partner limits assumed): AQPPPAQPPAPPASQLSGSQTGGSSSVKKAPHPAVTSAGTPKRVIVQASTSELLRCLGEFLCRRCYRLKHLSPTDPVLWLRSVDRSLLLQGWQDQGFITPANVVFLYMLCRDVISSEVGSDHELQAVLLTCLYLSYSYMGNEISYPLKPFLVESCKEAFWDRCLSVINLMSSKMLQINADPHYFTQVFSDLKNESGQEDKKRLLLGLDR
Chain of CDK5/p35 (Q00535 whole entry): as the sequence (Q00535 whole entry) above
Chain of CDK5/p35 (Q15078 whole entry partner): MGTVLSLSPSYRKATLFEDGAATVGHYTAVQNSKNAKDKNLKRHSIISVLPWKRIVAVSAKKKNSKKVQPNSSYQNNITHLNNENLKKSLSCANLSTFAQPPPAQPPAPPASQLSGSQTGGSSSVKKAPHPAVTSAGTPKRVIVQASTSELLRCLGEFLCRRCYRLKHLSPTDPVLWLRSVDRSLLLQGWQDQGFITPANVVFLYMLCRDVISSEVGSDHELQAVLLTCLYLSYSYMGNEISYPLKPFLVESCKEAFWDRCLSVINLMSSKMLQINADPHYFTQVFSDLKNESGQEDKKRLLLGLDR
Chain of CDK1/Cyclin B1 (P06493 whole entry): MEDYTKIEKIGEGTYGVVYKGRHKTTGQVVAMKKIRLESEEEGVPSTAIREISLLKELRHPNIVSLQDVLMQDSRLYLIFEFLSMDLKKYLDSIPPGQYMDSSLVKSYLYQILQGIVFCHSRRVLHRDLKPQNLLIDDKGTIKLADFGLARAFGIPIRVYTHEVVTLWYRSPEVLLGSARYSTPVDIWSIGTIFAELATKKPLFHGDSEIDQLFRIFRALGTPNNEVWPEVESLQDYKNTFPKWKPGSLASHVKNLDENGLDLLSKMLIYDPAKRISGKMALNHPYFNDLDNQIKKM
Chain of CDK1/Cyclin B1 (P14635 whole entry partner): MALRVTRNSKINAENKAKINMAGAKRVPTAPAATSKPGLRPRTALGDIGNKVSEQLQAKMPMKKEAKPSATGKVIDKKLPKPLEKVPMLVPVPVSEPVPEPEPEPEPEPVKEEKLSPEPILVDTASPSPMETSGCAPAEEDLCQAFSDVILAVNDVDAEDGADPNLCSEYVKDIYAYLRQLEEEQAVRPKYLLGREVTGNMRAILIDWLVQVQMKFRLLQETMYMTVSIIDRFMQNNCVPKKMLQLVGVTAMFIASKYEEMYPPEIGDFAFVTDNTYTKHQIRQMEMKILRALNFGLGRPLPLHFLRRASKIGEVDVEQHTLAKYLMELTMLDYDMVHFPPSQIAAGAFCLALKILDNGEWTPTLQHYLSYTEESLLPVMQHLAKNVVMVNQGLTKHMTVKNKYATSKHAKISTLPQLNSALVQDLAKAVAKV
Chain of CDK7/Cyclin H (P50613 whole entry): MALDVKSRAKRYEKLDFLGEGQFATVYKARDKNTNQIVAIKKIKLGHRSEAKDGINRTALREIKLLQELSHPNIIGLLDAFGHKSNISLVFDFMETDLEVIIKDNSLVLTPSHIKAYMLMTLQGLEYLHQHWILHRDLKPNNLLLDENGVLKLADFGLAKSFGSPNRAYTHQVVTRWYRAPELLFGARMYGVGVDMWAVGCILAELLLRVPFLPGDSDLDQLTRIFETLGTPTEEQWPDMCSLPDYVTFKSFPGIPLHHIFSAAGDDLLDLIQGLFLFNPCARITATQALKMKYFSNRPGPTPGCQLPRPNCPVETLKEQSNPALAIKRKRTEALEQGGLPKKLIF
Chain of CDK7/Cyclin H (P51946 whole entry partner): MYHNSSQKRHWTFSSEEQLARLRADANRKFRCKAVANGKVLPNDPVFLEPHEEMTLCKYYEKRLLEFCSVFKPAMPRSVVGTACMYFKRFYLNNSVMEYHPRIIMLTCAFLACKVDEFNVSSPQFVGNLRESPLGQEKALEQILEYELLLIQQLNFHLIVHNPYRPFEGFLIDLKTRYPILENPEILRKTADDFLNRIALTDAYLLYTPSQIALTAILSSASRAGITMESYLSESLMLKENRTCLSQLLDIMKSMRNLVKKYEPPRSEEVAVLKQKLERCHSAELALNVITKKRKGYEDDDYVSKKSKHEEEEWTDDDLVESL
Chain of CDK7/Cyclin H (P51948 whole entry partner): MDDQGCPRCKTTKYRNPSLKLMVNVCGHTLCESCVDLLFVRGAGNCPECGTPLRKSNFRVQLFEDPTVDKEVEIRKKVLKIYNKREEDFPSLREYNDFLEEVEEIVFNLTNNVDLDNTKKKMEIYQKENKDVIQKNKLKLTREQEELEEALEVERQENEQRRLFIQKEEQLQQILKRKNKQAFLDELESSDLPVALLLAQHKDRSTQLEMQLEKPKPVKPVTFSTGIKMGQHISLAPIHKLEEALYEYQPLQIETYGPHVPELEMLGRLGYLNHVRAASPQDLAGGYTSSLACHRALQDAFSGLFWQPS
Chain of CDK4/Cyclin D1 (P11802 whole entry): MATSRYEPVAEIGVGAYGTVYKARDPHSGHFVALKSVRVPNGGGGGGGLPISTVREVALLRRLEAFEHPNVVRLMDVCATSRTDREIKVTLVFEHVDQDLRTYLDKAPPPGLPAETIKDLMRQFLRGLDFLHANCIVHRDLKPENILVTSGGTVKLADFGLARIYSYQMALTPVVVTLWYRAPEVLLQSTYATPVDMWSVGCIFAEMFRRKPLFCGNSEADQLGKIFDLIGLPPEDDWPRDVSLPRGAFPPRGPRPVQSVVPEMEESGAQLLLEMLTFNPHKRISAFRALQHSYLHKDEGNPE
Chain of CDK4/Cyclin D1 (P24385 whole entry partner): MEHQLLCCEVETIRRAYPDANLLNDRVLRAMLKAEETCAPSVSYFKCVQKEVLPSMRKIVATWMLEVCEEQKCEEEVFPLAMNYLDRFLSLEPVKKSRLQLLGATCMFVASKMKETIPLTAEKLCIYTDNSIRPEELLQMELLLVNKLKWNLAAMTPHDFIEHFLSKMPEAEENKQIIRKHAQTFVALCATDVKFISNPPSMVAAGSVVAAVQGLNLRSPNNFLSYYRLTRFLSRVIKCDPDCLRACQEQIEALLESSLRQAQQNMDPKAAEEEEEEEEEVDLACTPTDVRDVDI

For the molecule `NS(=O)(=O)Cc1cccc(Nc2ncc3cc4n(c3n2)C2(CCCCC2)CNC4=O)c1` [Compound 43, (3-((6′-oxo-7′,8′-dihydro-6′H-spiro[cyclohexane-1,9′-pyrazino[1′,2′:1,5]pyrrolo[2,3-d]pyrimidin]-2′-yl)amino)phenyl)methanesulfonamide], the half-maximal inhibitory concentration (IC50) is over 100000 nM in [1]; 99000 nM in assay [2]; over 100000 nM in assay [3]; over 100000 nM in [4]; 47000 nM in [5]; 94000 nM in assay [6]. Further, the IC50 was 99000 nM in assay [7], over 100000 nM in [8], over 100000 nM in assay [9] and 10000 nM in assay [10].
For `O=C1NCC2(CCCCC2)n2c1cc1cnc(NC(=O)[C@@H]3CCNC3)nc12` [Compound 32, (R)-N-(6′-oxo-7′,8′-dihydro-6′H-spiro[cyclohexane-1,9′-pyrazino[1′,2′:1,5]pyrrolo[2,3-d]pyrimidin]-2′-yl)pyrrolidine-3-carboxamide], the IC50 in assay [1] stood at 5600 nM; in [2], 3100 nM; in assay [3] it was 12000 nM; in [4], 8600 nM; in [5] it was 2300 nM; in [6], 16000 nM. In addition, the IC50 in [7] worked out at 19000 nM; in assay [8] it was 14000 nM; in [9], 12000 nM; in [10] it was 12 nM.
As to `O=C1NCC2(CCCCC2)n2c1cc1cnc(NC(=O)[C@H]3CNCCN3)nc12` [Compound 36, (R)-N-(6′-oxo-7′,8′-dihydro-6′H-spiro[cyclohexane-1,9′-pyrazino[1′,2′:1,5]pyrrolo[2,3-d]pyrimidin]-2′-yl)piperazine-2-carboxamide], the IC50 in assay [1] was over 100000 nM; in assay [2], 88000 nM; in [3], over 100000 nM; in assay [4], over 100000 nM; in assay [5], 9400 nM; in assay [6], over 100000 nM. For the same molecule, the half-maximal inhibitory concentration (IC50) was over 100000 nM in assay [7], 82000 nM in assay [8], over 100000 nM in assay [9] and 240 nM in assay [10].
On to `O=C1CC[C@H](Nc2ncc3cc4n(c3n2)C2(CCCCC2)CNC4=O)CN1` [Compound 24, (S)-2′-((6-oxopiperidin-3-yl)amino)-7′,8′-dihydro-6′H-spiro[cyclohexane-1,9′-pyrazino[1′,2′:1,5]pyrrolo[2,3-d]pyrimidin]-6′-one], for which the concentration for half-maximal inhibition (IC50) is 560 nM in assay [1]; 220 nM in assay [2]; 240 nM in assay [3]; 290 nM in assay [4]; 250 nM in [5]; 330 nM in [6]. Moreover, the IC50 was 260 nM in assay [7], 1000 nM in [8], 470 nM in [9] and 25 nM in assay [10].
In the case of `C1=NCC2(CCCCC2)n2c1cc1cnc(NC3CCOCC3)nc12` [Compound 52, N-(tetrahydro-2H-pyran-4-yl)-8′H-spiro[cyclohexane-1,9′-pyrazino[1′,2′:1,5]pyrrolo[2,3-d]pyrimidin]-2′-amine], the IC50 in [1] was determined as 78 nM; in assay [2], 16 nM; in assay [3], 8.7 nM; in assay [4] it was 24 nM; in assay [5], 67 nM; in [6], 32 nM. Further, the 50% inhibitory concentration (IC50) is 31 nM in [7], 250 nM in assay [8], 280 nM in assay [9] and 58 nM in assay [10].

The record behind these values is patent publication US20200331925A1, “HETEROCYCLIC COMPOUNDS FOR THE TREATMENT OF ABNORMAL CELLULAR PROLIFERATION” (G1 Therapeutics, Inc., priority 2018, published 2020).
